One assay deals with T1, Human ALDH1A3 (Homo sapiens, UniProt P47895).
T1 construct: made in house
T1 sequence (P47895 1-512): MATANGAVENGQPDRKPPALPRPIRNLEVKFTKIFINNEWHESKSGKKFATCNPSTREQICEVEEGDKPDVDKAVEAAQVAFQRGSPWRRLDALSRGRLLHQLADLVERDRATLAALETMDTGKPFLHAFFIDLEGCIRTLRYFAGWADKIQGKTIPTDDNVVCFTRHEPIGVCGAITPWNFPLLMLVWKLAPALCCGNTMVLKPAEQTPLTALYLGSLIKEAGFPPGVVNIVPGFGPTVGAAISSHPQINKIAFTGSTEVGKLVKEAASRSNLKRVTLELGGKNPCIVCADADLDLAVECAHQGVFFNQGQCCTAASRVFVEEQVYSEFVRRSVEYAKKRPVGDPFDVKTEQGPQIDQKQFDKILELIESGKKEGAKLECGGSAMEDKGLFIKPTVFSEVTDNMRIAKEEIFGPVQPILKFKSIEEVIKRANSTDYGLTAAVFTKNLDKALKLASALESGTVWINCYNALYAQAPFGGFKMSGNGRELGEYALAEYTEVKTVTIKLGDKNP
The experiment in a line: ALDH1A3 inhibition, IC50, Ki and type of inhibition. The assay is classed as biochemical. The conditions noted are these: 6 μM hexanal as substrate; mean ± SE. As for the experimental part: Human ALDH1A1, ALDH1A3, and ALDH3A1 were cloned and recombinantly expressed from the pET-30 Xa/LIC vector. Protein purification was achieved by affinity chromatography on a nickel-charged chelating Sepharose Fast Flow 5-mL column (His Trap column, Cytiva), which specifically binds the protein due to its N-terminal (His)6 tag, using an ÄKTA FPLC system (Cytiva), as previously described.[55] Enzymes including the His tag were stored at −80 °C in 20 mM Tris/HCl and 0.5 M NaCl, pH 8.0, until use. Reaction buffers were as follows: ALDH1A1 was assayed in 50 mM HEPES, 0.5 mM EDTA, and 0.5 mM DTT, pH 8.0; […] Activity under standard conditions was measured fluorimetrically at 25 °C using a Cary Eclipse (Varian) fluorimeter to follow the purification procedure and to check the enzyme concentration before each kinetic experiment. […] In order to determine the IC50 values, reaction rates were determined at various concentrations of inhibitor at a fixed concentration of substrate. […] Values are expressed as the mean ± SE. […] The data of enzymatic activities at different inhibitor concentrations were fitted to the Michaelis–Menten equation to determine the values of Km and Vmax. Next, results were fitted to the equations for competitive, given by [drawing 3]; noncompetitive, given by [drawing 4]; uncompetitive, given by [drawing 5]; and mixed, given by [drawing 6] .[56] The type of inhibition was selected based on the lowest error value. Parameters were expressed as the mean ± SE.

For assay [1], the target named is T2, Human ALDH1A1 (Homo sapiens, UniProt P00352).
T2 construct: made in house
T2 sequence (P00352 1-501): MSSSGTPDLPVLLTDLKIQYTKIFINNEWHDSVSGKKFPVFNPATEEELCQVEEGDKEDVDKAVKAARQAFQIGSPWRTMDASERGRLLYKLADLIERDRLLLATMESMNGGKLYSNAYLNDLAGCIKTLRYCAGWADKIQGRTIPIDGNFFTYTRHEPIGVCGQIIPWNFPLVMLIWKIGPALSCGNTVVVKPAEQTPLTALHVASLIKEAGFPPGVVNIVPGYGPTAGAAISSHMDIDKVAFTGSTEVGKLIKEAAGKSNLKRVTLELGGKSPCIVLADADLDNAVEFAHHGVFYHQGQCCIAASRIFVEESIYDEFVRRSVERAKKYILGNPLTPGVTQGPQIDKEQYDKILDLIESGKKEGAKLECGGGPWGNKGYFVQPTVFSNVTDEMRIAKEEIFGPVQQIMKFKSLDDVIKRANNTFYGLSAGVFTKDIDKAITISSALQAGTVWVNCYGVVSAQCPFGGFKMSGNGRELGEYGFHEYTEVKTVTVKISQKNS
The experiment in a line: ALDH1A1 inhibition, IC50 determination. The class given is biochemical. The conditions noted are these: 5 μM hexanal as substrate; mean ± SE. As for the experimental part:
(§1) Human ALDH1A1, ALDH1A3, and ALDH3A1 were cloned and recombinantly expressed from the pET-30 Xa/LIC vector. Protein purification was achieved by affinity chromatography on a nickel-charged chelating Sepharose Fast Flow 5-mL column (His Trap column, Cytiva), which specifically binds the protein due to its N-terminal (His)6 tag, using an ÄKTA FPLC system (Cytiva), as previously described.[55] Enzymes including the His tag were stored at −80 °C in 20 mM Tris/HCl and 0.5 M NaCl, pH 8.0, until use. Reaction buffers were as follows: ALDH1A1 was assayed in 50 mM HEPES, 0.5 mM EDTA, and 0.5 mM DTT, pH 8.0; ALDH1A3 was assayed in 50 mM HEPES, 30 mM MgCl2, and 5 mM DTT, pH 8.0; and ALDH3A1 was assayed in 50 mM Tris–HCl and 5 mM DTT, pH 8.0. Activity under standard conditions was measured fluorimetrically at 25 °C using a Cary Eclipse (Varian) fluorimeter to follow the purification procedure and to check the enzyme concentration before each kinetic experiment. The fluorescence of NADH was characterized at 460 nm with excitation at 340 nm, and 5 μM NAD(P)H was added as an internal standard to obtain the absolute reaction rates.[55] Standard activity was measured at saturating concentrations of substrate using 30 μM hexanal (ALDH1A1), 250 μM hexanal (ALDH1A3), or 250 μM 4-NBA (ALDH3A1). NAD^+ was 500 μM for ALDH1A1 and ALDH1A3, and NADP^+ was 1 mM for ALDH3A1.
(§2) In order to determine the IC50 values, reaction rates were determined at various concentrations of inhibitor at a fixed concentration of substrate. As substrates for ALDH1A1, ALDH1A3, and ALDH3A1, 5 μM hexanal, 6 μM hexanal, and 31 μM 4-NBA, respectively, were used. The IC50 values were calculated by nonlinear fitting of the obtained data to a sigmoidal plot using GraFit 5.0 (Erithacus software), with the following 4-parameter equation [drawing 2] , where y is the specific activity, x is the inhibitor concentration, background is the minimum y value, range is the fitted uninhibited value minus the background, and s is the slope factor. Values are expressed as the mean ± SE.

The next assay relates to PC3. The experiment in a line: MTT chemosensitivity assay, PC3. The class given is cell-based, human. As to conditions: Homo sapiens, PC-3, 96 h exposure, ± SD, at least three independent experiments. The method, then: (§3) MTT (3-(4, 5-dimethyl-2-thiazolyl)-2, 5-diphenyl-2H-tetrazolium bromide) assay was used to determine cell viability.[64] Immortalized PCa cells (PC-3, Du-145, and LNCaP) were seeded in 96-well plates and allowed to adhere overnight at 37 °C, 5% CO2, and 100% humidity. […] After 96 h of exposure, 200 μL of MTT (Sigma) solution (0.5 mg/mL) was added to each well and incubated at 37 °C for 4 h. The formazan crystals were dissolved in DMSO (Sigma), and the absorbance was read using a microplate reader (Multiskan EX; Thermo Fisher Scientific) at 540 nm. Data analysis was performed using Microsoft Excel 2013 and GraphPad Prism software.
On the technique in general: Tetrazolium assays rely on reduction of a dye to a coloured formazan, in cell work by metabolically active cells.

A further assay relates to DU145. The experiment in a line: MTT chemosensitivity assay, DU145. As to conditions: Homo sapiens, DU-145, 96 h exposure, ± SD, at least three independent experiments. The assay is classed as cell-based, human. The method, then:
as §3

In the next assay the test system is LNCaP. Briefly: MTT chemosensitivity assay, LNCaP. The conditions noted are these: Homo sapiens, LNCaP, 96 h exposure, ± SD, at least three independent experiments. The assay is classed as cell-based, human. As for the experimental part: as §3
The target of assay [2] is T2, Human ALDH1A1. The experiment in a line: Inhibition screening, single point at 10 μM, ALDH1A1. The assay is classed as biochemical. The conditions noted are these: 10 μM compound; 5 μM hexanal (Figure S1). The method, then: as §1
All compounds tested were dissolved in DMSO and assayed at a final concentration of 1% (v/v) DMSO. […] For the initial screening, the enzymatic activity was measured in 96-well plates (final volume of 200 μL) in a Victor 3 Multilabel Plate Reader (Perkin Elmer), by monitoring the fluorescence of the NAD(P)H produced during the reaction (excitation at 340 nm and emission at 460 nm). Alternatively, the enzymatic activity was measured in a Varian Cary 400 UV–vis spectrophotometer, by monitoring the increase in the absorbance of NAD(P)H at 340 nm (ε = 6.22 mM^–1·cm^–1) or in a Cary Eclipse Varian fluorimeter, as described above. […] For ALDH1A1, 5 μM hexanal (Sigma) was used. For ALDH1A3, 10 and 250 μM hexanal (Sigma) were used. For ALDH3A1, 4-NBA (Sigma) was used at 31 and 250 μM. All substrates were prepared in the corresponding assay buffer at a concentration of 2 mM and further diluted to reach the final concentrations required per experiment. The concentration of the enzyme was kept from 50- to 100-fold lower than that of the substrate for all enzymatic assays.

In the next assay the target is T3, Human ALDH3A1 (Homo sapiens, UniProt P30838).
T3 construct: made in house
T3 sequence (P30838 1-453): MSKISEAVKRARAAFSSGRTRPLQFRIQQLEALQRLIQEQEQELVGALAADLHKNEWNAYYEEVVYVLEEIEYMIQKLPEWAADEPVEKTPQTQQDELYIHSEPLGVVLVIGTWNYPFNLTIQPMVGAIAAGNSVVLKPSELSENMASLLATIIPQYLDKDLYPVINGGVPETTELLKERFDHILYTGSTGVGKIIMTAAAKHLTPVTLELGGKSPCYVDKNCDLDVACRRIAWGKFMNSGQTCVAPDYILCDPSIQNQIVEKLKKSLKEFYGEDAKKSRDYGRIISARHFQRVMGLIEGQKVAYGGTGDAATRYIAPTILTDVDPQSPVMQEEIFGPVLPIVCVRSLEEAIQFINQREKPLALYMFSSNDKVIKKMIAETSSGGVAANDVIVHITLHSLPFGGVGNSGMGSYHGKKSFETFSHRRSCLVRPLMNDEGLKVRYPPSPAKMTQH
The experiment in a line: ALDH3A1 inhibition, IC50, Ki and type of inhibition. The assay is classed as biochemical. As for the experimental part: as §1, §2
Activity assays to determine the type of inhibition and Ki value were performed using various substrate and inhibitor concentrations maintaining the same conditions as for the IC50 experiments and using GraFit 5.0 for data processing. The data of enzymatic activities at different inhibitor concentrations were fitted to the Michaelis–Menten equation to determine the values of Km and Vmax. Next, results were fitted to the equations for competitive, given by [drawing 3]; noncompetitive, given by [drawing 4]; uncompetitive, given by [drawing 5]; and mixed, given by [drawing 6] .[56] The type of inhibition was selected based on the lowest error value. Parameters were expressed as the mean ± SE.

The target in assay [3] is T2, Human ALDH1A1. The experiment in a line: DEAB analogues as substrates of ALDH1A1. The class given is biochemical. As to conditions: 10 μM compound as substrate, relative to activity with 10 μM hexanal (Figure S2). As for the experimental part: as §1
According to their structure with a carbonyl group, compounds were tested for their substrate properties against ALDH1A1, ALDH1A3, and ALDH3A1. […] Results are expressed as the percentage of activity at 10 μM versus the activity at 10 μM of their standard substrate (hexanal or 4-NBA). Values are expressed as the mean ± SE.

Bounds are passed on as bounds.

Usually IC50 stands for the concentration that inhibits the measured activity by half. Regarding `COc1cc(C=O)ccc1N1CCCC1` [Compound 29, 3-Methoxy-4-(pyrrolidin-1-yl)benzaldehyde], the IC50 on Human ALDH1A3 is 4.86 ± 0.81 µM; on Human ALDH1A1 [1], 0.88 ± 0.05 µM.

Take `Cc1cc(C=O)ccc1N1CCCC1` [Compound 26, 3-Methyl-4-(pyrrolidin-1-yl)benzaldehyde]: the IC50 at Human ALDH1A3 was 1.15 ± 0.15 µM; in the assay with PC3 it was more than 200 µM; in the assay with DU145 it was more than 200 µM; in the assay on LNCaP, 172 ± 8 µM; at Human ALDH1A1 [1] it was 0.8 ± 0.16 µM.

Take `CCCN(CCC)c1ccc(C=O)cc1` [Compound 1, 4-(Dipropylamino)benzaldehyde]: the values for the 50% inhibitory concentration (IC50) in the assay with PC3, in the assay with DU145 and in the assay on LNCaP were more than 200 µM, 190 ± 25 µM and 73 ± 14 µM, respectively. Besides, the “remaining ALDH1A1 activity” value on Human ALDH1A1 [2] turned out to be 12%.

On to `O=Cc1ccc(N2CCCC2)cc1` [Compound 4, 4-(Pyrrolidin-1-yl)benzaldehyde], for which the “remaining ALDH1A1 activity” value at Human ALDH1A1 [2] is 10%.

As a reminder, the Ki is a measure of affinity in units of concentration, obtained from inhibition or displacement. On to `CCN(CC)c1ccc(C=O)cc1[N+](=O)[O-]` [Compound 19, 4-(Diethylamino)-3-Nitrobenzaldehyde], for which the concentration for half-maximal inhibition (IC50) with PC3 is more than 200 µM; with DU145, more than 200 µM; in the assay with LNCaP it was 136 ± 13 µM; at Human ALDH3A1 (31 μM 4-NBA as substrate, mean ± SE), 1.29 ± 0.15 µM. The “type of inhibition ALDH3A1” value at Human ALDH3A1 (4-NBA as substrate) is listed as “competitive”. Besides, on Human ALDH3A1 (4-NBA as substrate, fit to competitive inhibition equation, mean ± SE), the Ki was 0.24 ± 0.04 µM. In addition, the ALDH1A1 substrate activity on Human ALDH1A1 [3] turned out to be 69%.

As for `O=Cc1ccc(N2CCCC2)c(Cl)c1` [Compound 12, 3-Chloro-4-(pyrrolidin-1-yl)benzaldehyde], the IC50 at Human ALDH1A3 came out at 0.31 ± 0.03 µM. The “remaining ALDH1A1 activity” value at Human ALDH1A1 [2] is 17%.

Take `CCN(CC)c1ccc(C=O)cc1Br` [Compound 13, 3-Bromo-4-(diethylamino)benzaldehyde]: the concentration for half-maximal inhibition (IC50) turned out to be 10.7 ± 1.3 µM at Human ALDH1A3, 166 ± 41 µM in the assay on PC3, 123 ± 12 µM in the assay with DU145 and 47 ± 0.6 µM in the assay on LNCaP. The “remaining ALDH1A1 activity” value on Human ALDH1A1 [2] is given as 24%. The ALDH1A1 substrate activity on Human ALDH1A1 [3] is given as approximately 60%.
